# Assay results from patent US20250179083A1, “TRICYCLIC TRIAZOLO COMPOUNDS AS DGK INHIBITORS” (Incyte Corporation, priority 2023, published 2025).
# Key:
# DGKα = molecular target: T1, DGKα (Homo sapiens, UniProt P23743); assay: In vitro DGKα inhibition assay (ADP-Glo); type: biochemical; conditions: His-tagged human recombinant DGKα 0.1 nM, 50 μM ATP, 20 μM DLG, 90 minute incubation
# T1 construct: His; purchased Signal Chem D21-10BH
# Protocol: (§1) The DGKα and DGKζ biochemical reactions were performed using His-tagged human recombinant enzymes (Signal Chem, DGKα, #D21-10BH; DGKζ, #D30-10H)) and DLG (Dilauroyl-sn-glycerol) lipid substrate (Signal Chem, #D430-59). ADP-Glo assay was performed using ADP-Glo™ kinase Assay kit (Promega, #V9104). The reactions were carried out in assay buffer containing 40 mM Tris, pH 7.5, 0.1% CHAPS, 0.1% Prionex, 40 mM NaCl, 5 mM MgCl2, 1 mM CaCl2, and 1 mM DTT. DGKα reactions contained 0.1 nM DGKα, 50 μM ATP, and 20 μM DLG. And DGKζ reactions contained 0.4 nM DGKζ, 30 μM ATP, and 20 μM DLG.
# (§2) Compounds were added with top concentration of 2 mM with 11 point, 3-fold dilution series. Enzyme solution (contains 2×DGK enzyme concentration in 1× assay buffer) was added to the plate in 2 μL/well volume, followed by 2 μL/well of substrate solution (contains 2× concentration of ATP and DLG substrate in 1× assay buffer). Plates were then centrifuged for 1 min at 1200 RPM and sealed or lidded. For 4 μL reaction volume, test compounds were therefore diluted 100× to final top concentration of 20 μM. After 90 minute incubation, reactions were quenched by addition of 2 μL/well Promega ADP-Glo Reagent, followed by centrifugation and lidding. After 60 min incubation, 2 μL/well Promega Kinase Detection Reagent was added, plates centrifuged, and incubated for 30 min. Plates were then read using Luminescence method on BMG PHERAstar FSX plate reader. Percent inhibition was calculated and IC50s were determined using 4-parameter fit in Genedata Screener. Labcyte Echo acoustic dispenser was used for compound addition, and Formulatrix Tempest liquid handler was used for all reagent dispenses.
# DGKζ = molecular target: T2, DGKζ (Homo sapiens, UniProt Q13574); assay: In vitro DGKζ inhibition assay (ADP-Glo); type: biochemical; conditions: His-tagged human recombinant DGKζ 0.4 nM, 30 μM ATP, 20 μM DLG, 90 minute incubation
# T2 construct: His; purchased Signal Chem D30-10H
# T2 sequence (Q13574 whole entry): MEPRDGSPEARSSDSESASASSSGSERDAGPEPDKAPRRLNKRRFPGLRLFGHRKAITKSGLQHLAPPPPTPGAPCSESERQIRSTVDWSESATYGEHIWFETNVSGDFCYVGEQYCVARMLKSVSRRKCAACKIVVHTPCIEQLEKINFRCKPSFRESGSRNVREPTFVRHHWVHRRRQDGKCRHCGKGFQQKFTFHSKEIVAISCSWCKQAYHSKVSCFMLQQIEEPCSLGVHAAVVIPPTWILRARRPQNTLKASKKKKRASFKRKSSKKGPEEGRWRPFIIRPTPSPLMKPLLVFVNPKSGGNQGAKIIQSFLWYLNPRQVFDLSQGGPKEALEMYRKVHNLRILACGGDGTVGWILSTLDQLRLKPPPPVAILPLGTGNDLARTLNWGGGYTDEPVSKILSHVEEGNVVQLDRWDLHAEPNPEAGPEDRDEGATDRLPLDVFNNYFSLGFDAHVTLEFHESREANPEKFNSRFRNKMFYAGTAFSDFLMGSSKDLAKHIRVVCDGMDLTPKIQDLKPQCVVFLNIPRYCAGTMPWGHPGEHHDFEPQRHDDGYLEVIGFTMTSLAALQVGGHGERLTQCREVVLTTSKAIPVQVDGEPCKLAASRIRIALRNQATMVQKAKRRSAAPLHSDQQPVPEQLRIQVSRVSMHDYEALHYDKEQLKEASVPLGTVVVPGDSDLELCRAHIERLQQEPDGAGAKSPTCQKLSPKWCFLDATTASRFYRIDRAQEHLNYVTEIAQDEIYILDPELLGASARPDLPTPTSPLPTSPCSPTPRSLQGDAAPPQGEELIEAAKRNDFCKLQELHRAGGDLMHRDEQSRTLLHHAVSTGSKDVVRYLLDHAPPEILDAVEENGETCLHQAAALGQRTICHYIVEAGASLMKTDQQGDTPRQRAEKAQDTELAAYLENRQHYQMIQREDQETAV
# Protocol: as §1, §2
# T1 sequence (P23743 whole entry): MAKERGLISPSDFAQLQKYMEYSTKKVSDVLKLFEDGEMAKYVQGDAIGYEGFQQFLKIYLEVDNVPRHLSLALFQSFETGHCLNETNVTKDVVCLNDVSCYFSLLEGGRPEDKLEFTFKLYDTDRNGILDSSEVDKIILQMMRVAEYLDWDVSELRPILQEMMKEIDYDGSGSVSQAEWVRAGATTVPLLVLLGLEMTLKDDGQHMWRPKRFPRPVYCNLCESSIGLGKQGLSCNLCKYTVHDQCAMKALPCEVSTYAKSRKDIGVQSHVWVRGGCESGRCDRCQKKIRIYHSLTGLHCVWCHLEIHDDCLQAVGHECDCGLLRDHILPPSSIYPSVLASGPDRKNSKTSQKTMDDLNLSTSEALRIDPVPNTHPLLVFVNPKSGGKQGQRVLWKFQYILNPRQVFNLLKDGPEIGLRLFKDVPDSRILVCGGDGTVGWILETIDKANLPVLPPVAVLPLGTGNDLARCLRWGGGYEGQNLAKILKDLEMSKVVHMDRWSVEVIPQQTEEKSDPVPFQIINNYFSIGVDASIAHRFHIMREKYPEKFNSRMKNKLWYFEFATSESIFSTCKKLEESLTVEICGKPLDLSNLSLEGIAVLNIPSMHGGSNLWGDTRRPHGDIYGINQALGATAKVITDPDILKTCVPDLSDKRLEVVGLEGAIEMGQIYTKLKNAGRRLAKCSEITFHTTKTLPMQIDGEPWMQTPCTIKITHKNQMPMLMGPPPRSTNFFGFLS
Compound,IC50 (DGKα) [nM],IC50 (DGKζ) [nM]
"Cc1nc2c(N3C[C@@H](C)N(C(c4ccc(C(F)(F)F)cc4)C4CC(F)(F)C4)C[C@@H]3C)cc3nncn3c2n1C[C@@H]1CCCO1 (single isomer, unassigned) [Example 49]",< 20,< 20
"C[C@@H]1CN(c2nc3nncn3c3c2ncn3C[C@@H]2CCCO2)[C@@H](C)CN1C(c1ccc(Cl)cn1)c1ccc(Cl)cn1 [Example 20, 4-((2S,5R)-4-(Bis(5-chloropyridin-2-yl)methyl)-2,5-dimethylpiperazin-1-yl)-1-(((S)-tetrahydrofuran-2-yl)methyl)-1H-[1,2,4]triazolo[3,4-b]purine]",< 20,< 20
"Cc1nc2c(N3C[C@@H](C)N([C@@H](c4ccc5cc(C(F)(F)F)ccc5n4)C(C)C)C[C@@H]3C)nc3nncn3c2n1C[C@@H]1CCCO1 [Example 64, 4-((2S,5R)-2,5-dimethyl-4-((R)-2-methyl-1-(6-(trifluoromethyl)quinolin-2-yl)propyl)piperazin-1-yl)-2-methyl-1-(((S)-tetrahydrofuran-2-yl)methyl)-1H-[1,2,4]triazolo[3,4-b]purine]",< 20,< 20
"Cc1nc2c(N3C[C@@H](C)N(C(c4ccc(Cl)c(F)c4)C(C)C)C[C@@H]3C)nc3nncn3c2n1C[C@@H]1CCCO1 (single isomer, unassigned) [Example 23]",< 20,< 20
"Cc1nc2c(N3C[C@@H](C)N(Cc4c(F)cc(Cl)cc4F)C[C@@H]3C)nc3nncn3c2n1C[C@@H]1CCCO1 [Example 73, 4-((2S,5R)-4-(4-Chloro-2,6-difluorobenzyl)-2,5-dimethylpiperazin-1-yl)-2-methyl-1-(((S)-tetrahydrofuran-2-yl)methyl)-1H-[1,2,4]triazolo[3,4-b]purine]",< 20,< 20
"CC[C@H](c1ccc(Cl)cc1)N1C[C@H](C)N(c2nc3nncn3c3c2ncn3C[C@@H]2CCCO2)C[C@H]1C [Example 58, 4-((2S,5R)-4-((R)-1-(4-chlorophenyl)propyl)-2,5-dimethylpiperazin-1-yl)-1-(((S)-tetrahydrofuran-2-yl)methyl)-1H-[1,2,4]triazolo[3,4-b]purine]",< 20,< 20
"C[C@@H]1CN(c2nc3nncn3c3c2ncn3CC2(O)CCCC2)[C@@H](C)CN1C(c1ccc(Cl)cc1)c1ccc(Cl)cc1 [Example 44, 1-((4-((2S,5R)-4-(Bis(4-chlorophenyl)methyl)-2,5-dimethylpiperazin-1-yl)-1H-[1,2,4]triazolo[3,4-b]purin-1-yl)methyl)cyclopentan-1-ol]",< 20,< 20
"C[C@@H]1CN(c2nc3nncn3c3c2ncn3C[C@@H]2CCCO2)[C@@H](C)CN1C(C[C@@H](C)C(F)(F)F)c1ccc(Cl)cc1 (single isomer, unassigned) [Example 11]",< 20,< 20
"C[C@@H]1CN(c2nc3nncn3c3c2ncn3CC2(O)CCCC2)[C@@H](C)CN1C(c1ccc(Cl)cc1)C1CC(F)(F)C1 (stereo partly drawn) [Example 45, 1-((4-((2S,5R)-4-((4-Chlorophenyl)(3,3-difluorocyclobutyl)methyl)-2,5-dimethylpiperazin-1-yl)-1H-[1,2,4]triazolo[3,4-b]purin-1-yl)methyl)cyclopentan-1-ol]",< 20,< 20
"Cc1nc2c(N3C[C@@H](C)N([C@H](c4ccc5cc(C(F)(F)F)ccc5n4)C(C)C)C[C@@H]3C)nc3nncn3c2n1C[C@@H]1CCCO1 [Example 63, 4-((2S,5R)-2,5-Dimethyl-4-((S)-2-methyl-1-(6-(trifluoromethyl)quinolin-2-yl)propyl)piperazin-1-yl)-2-methyl-1-(((S)-tetrahydrofuran-2-yl)methyl)-1H-[1,2,4]triazolo[3,4-b]purine]",< 20,< 20
"CC(c1ccc(C(F)(F)F)cc1)N1C[C@H](C)N(c2nc3nncn3c3c2ncn3C[C@@H]2CCCO2)C[C@H]1C (stereo partly drawn) [Example 68, 4-((2S,5R)-2,5-Dimethyl-4-(1-(4-(trifluoromethyl)phenyl)ethyl)piperazin-1-yl)-1-(((S)-tetrahydrofuran-2-yl)methyl)-1H-[1,2,4]triazolo[3,4-b]purine]",< 20,< 20
"C[C@@H]1CN(c2nc3nncn3c3c2ncn3C[C@@H]2CCCO2)[C@@H](C)CN1C(c1ccc(Cl)cc1)C1CC(F)(F)C1 (stereo partly drawn) [Example 32, 4-((2S,5R)-4-((4-Chlorophenyl)(3,3-difluorocyclobutyl)methyl)-2,5-dimethylpiperazin-1-yl)-1-(((S)-tetrahydrofuran-2-yl)methyl)-1H-[1,2,4]triazolo[3,4-b]purine]",< 20,< 20
"Cc1nc2c(N3C[C@@H](C)N(C(c4ccc(Cl)cc4)C4CC(F)(F)C4)C[C@@H]3C)cc3nncn3c2n1C[C@@H]1CCCO1 (single isomer, unassigned) [Example 62]",< 20,< 20
"Cc1nc2c(N3C[C@H]4CC[C@@H](C3)N4C(c3ccc(C(F)(F)F)cc3)C3CC(F)(F)C3)nc3nncn3c2n1C[C@@H]1CCCO1 (stereo partly drawn) [Example 81, 4-((1R,5S)-8-((3,3-Difluorocyclobutyl)(4-(trifluoromethyl)phenyl)methyl)-3,8-diazabicyclo[3.2.1]octan-3-yl)-2-methyl-1-(((S)-tetrahydrofuran-2-yl)methyl)-1H-[1,2,4]triazolo[3,4-b]purine]",< 20,< 20
"C[C@@H]1CN(c2nc3nncn3c3c2ncn3C[C@@H]2CCCO2)[C@@H](C)CN1Cc1ccc(C(F)(F)F)cc1 [Example 40, 4-((2S,5R)-2,5-Dimethyl-4-(4-(trifluoromethyl)benzyl)piperazin-1-yl)-1-(((S)-tetrahydrofuran-2-yl)methyl)-1H-[1,2,4]triazolo[3,4-b]purine]",< 20,< 20
"Cc1nc2c(N3C[C@@H](C)N(C(c4ccc(Cl)c(F)c4F)C4CC(F)(F)C4)C[C@@H]3C)nc3nncn3c2n1C[C@@H]1CCCO1 (stereo partly drawn) [Example 80, 4-((2S,5R)-4-((4-Chloro-2,3-difluorophenyl)(3,3-difluorocyclobutyl)methyl)-2,5-dimethylpiperazin-1-yl)-2-methyl-1-(((S)-tetrahydrofuran-2-yl)methyl)-1H-[1,2,4]triazolo[3,4-b]purine]",< 20,< 20
"C[C@@H]1CN(c2nc3nncn3c3c2ncn3C[C@@H]2CCCO2)[C@@H](C)CN1Cc1ccc(Cl)cc1F [Example 48, 4-((2S,5R)-4-(4-Chloro-2-fluorobenzyl)-2,5-dimethylpiperazin-1-yl)-1-(((S)-tetrahydrofuran-2-yl)methyl)-1H-[1,2,4]triazolo[3,4-b]purine]",< 20,< 20
"C[C@@H]1CN(c2nc3nncn3c3c2ncn3C[C@@H]2CCCO2)[C@@H](C)CN1Cc1ccc(Cl)cc1 [Example 47, 4-((2S,5R)-4-(4-Chlorobenzyl)-2,5-dimethylpiperazin-1-yl)-1-(((S)-tetrahydrofuran-2-yl)methyl)-1H-[1,2,4]triazolo[3,4-b]purine]",< 20,< 20
"Cc1nc2c(N3C[C@@H](C)N([C@H](c4ccc(Cl)cc4F)C(C)C)C[C@@H]3C)nc3nncn3c2n1C[C@@H]1CCCO1 [Example 28, 4-((2S,5R)-4-((S)-1-(4-Chloro-2-fluorophenyl)-2-methylpropyl)-2,5-dimethylpiperazin-1-yl)-2-methyl-1-(((S)-tetrahydrofuran-2-yl)methyl)-1H-[1,2,4]triazolo[3,4-b]purine]",< 20,< 20
"C[C@@H]1CN(c2nc3nncn3c3c2ncn3C[C@@H]2CCCO2)[C@@H](C)CN1[C@H](c1ccc(Cl)cc1)c1ccc(Cl)cn1 (single isomer, unassigned) [Example 22]",< 20,< 20
"Cc1nc2c(N3C[C@@H](C)N(C(c4ccc(Cl)cc4)[C@@H]4CC4(F)F)C[C@@H]3C)nc3nncn3c2n1C[C@@H]1CCCO1 (single isomer, unassigned) [Example 8]",< 20,< 20
"Cc1nc2c(N3C[C@@H](C)N(C(c4ccc(Cl)cc4F)C4CC(F)(F)C4)C[C@@H]3C)nc3nncn3c2n1C[C@@H]1CCCO1 (stereo partly drawn) [Example 5, 4-((2S,5R)-4-((4-Chloro-2-fluorophenyl)(3,3-difluorocyclobutyl)methyl)-2,5-dimethylpiperazin-1-yl)-2-methyl-1-(((S)-tetrahydrofuran-2-yl)methyl)-1H-[1,2,4]triazolo[3,4-b]purine]",< 20,< 20
"CC(C)[C@@H](c1ccc2cc(C(F)(F)F)ccc2n1)N1C[C@H](C)N(c2nc3nncn3c3c2ncn3C[C@@H]2CCCO2)C[C@H]1C [Example 83, 4-((2S,5R)-2,5-Dimethyl-4-((S)-2-methyl-1-(6-(trifluoromethyl)quinolin-2-yl)propyl)piperazin-1-yl)-1-(((S)-tetrahydrofuran-2-yl)methyl)-1H-[1,2,4]triazolo[3,4-b]purine]",20 to 200,< 20
